{
  "source": "patent US20030055101A1",
  "about": "“Use of statins to inhibit formation of osteoclasts” (priority 2001, published 2003)",
  "key": {"[1]": {"tested_on": "RAW 264.7 cells", "experiment": "RANKL-induced osteoclastogenesis in RAW 264.7 cells (TRAP staining)", "type": "cell-based", "procedure": "Raw cells (2000/well) were stimulated with RANKL (50 ng/mL)±atorvastatin and S,S-enantiomer of atorvastatin for 5 days and TRAP staining was performed at the end of Day 5 and the data is expressed as % inhibition of number of TRAP-positive cells compared to control.\nRAW cells were plated at a density of 2000 cells/well in a 48-well plate and cultured overnight in alpha-MEM medium containing antibiotics. Cells were treated with either RANKL (50 ng/mL)±atorvastatin or the S,S-enantiomer of atorvastatin (10, 1, and 0.01 μM) for 5 days and stained for TRAP enzyme. Purple stained cells with three or more nuclei were counted under the microscope and represented as % inhibition of osteoclastogenesis compared to control cells.\nRAW cells were cultured in α-MEM containing 10% FBS, 100 IU penicillin, 100 μg/mL of streptomycin. Cells were plated at a density of 2000 cells/well in a 48-well plate. After overnight incubation, the cells were stimulated with RANKL (50 ng/mL)±atorvastatin, S,S-enantiomer of atorvastatin or OPG for 5 days and stained for TRAP at the end of Day 5.\nAfter initial wash with 1×PBS, the cells were fixed for 30 seconds using acetone based fixing solution containing acetone, citric acid and 37% formaldehyde. After washing twice with distilled water that was prewarmed to 37° C., the cells were incubated in acetate buffer containing naphthol AS-B1 and Fast Garnet GBC solution for 45 minutes at 37° C. TRAP-positive cells are typically brown in color when viewed under the microscope. The total number of TRAP-positive cells with 3 or more nuclei in each well were counted. TRAP activity is a phenotypic marker of mature osteoclasts."}, "[2]": {"tested_on": "osteoclasts in ovariectomized rats", "experiment": "Osteoclast numbers in ovariectomized rats (tibia histomorphometry)", "type": "in vivo, rat", "conditions": "for osteoclast numbers: 5 weeks", "procedure": "Rats were ovariectomized according to the standard protocol and were administered orally with various doses of atorvastatin (2.5, 5, and 10 mg/kg body weight) for 5 weeks. Tibiae were analyzed for osteoclast number by histomorphometry. Ethinyl estradiol (EE) (0.4 mg/kg), a known bone protective agent, was used as a positive control.\nOvariectomy-induced bone loss in rats is an established model of osteoporosis, wherein estrogen insufficiency leads to increased osteoclastogenesis, possibly due to enhanced cytokine production. To test whether statins decrease bone resorption in vivo, ovariectomized rats were given orally various doses of atorvastatin (2.5, 5, or 10 mg/kg body weight) for 5 weeks. At the end of the study, the animals were sacrificed, and histomorphometric analysis was performed on tibia obtained from the animals.\nThe rats were ovariectomized according to the standard protocol. Briefly, after anesthesia the rats were cleaned with antiseptic solution. A small incision was made on the back of the animal, and the ovaries were located carefully underneath the fat tissue. After proper clamping, ovaries were removed with a scalpel blade. Also, the fallopian tube with the uterine horn was sealed by electrocautery. Later, the skin incision was closed using wound clips. After recovery from the surgery, animals were randomized into 6 groups of 8 animals each (sham operated, OVX, OVX+ atorvastatin 2.5, 5, 10 mg/kg body weight and OVX+ ethinyl estradiol) and dosed with various concentrations of atorvastatin and vehicle control every day for a period of 5 weeks.\nHistomorphometric analysis was performed using decalcified sections of the proximal tibia for cancellous bone and undecalcified sections for cortical bone. Briefly, tibiae were decalcified using 10% ethylene diaminetetraacetic acid (EDTA), followed by […] in ascending concentrations of ethanol and embedded in glycol methacrylate (GMA) resin. The specimens were sectioned at 5 to 10 μm and stained with TRAP and counter stained with methyl green for determination of cellular parameters. Bone histomorphometry was performed using an OsteoMeasure image analysis system connected via a video system to a suitable light microscope."}, "[3]": {"tested_on": "primary murine bone marrow cell cultures", "experiment": "RANKL-induced osteoclastogenesis in bone marrow cell cultures (TRAP staining)", "type": "cell-based, mouse", "conditions": "for number of TRAP-positive cells formed: added 2 days post RANKL stimulation (5 days after isolation)", "procedure": "Bone marrow cells were cultured with 100 ng/mL of M-CSF for 3 days. The cells were further cultured for 5 more days with either atorvastatin, its S,S-enantiomer or osteoprotegerin (OPG) in the presence of RANKL and M-CSF. Cells were then fixed and stained for TRAP. […] The data shown are mean ±SD (n=4 wells/treatment).\nBone marrow cells treated with M-CSF for 3 days were stimulated with RANKL as well as atorvastatin (0.01 nM, […], and 1 μM), its S,S-enantiomer or OPG. In some experiments atorvastatin was added 2 days post RANKL stimulation (5 days after isolation). On Day 8 postisolation, cells were fixed and stained for TRAP. TRAP-positive multinucleated cells were counted and represented. The data shown are mean of ±SD (n=4 wells/treatment).\nBone marrow cells were cultured in the presence of 100 ng/mL of recombinant murine M-CSF for 3 days after isolation. The cells were then stimulated with murine RANKL (100 ng/mL) in the presence of various doses of atorvastatin (0.01 nM, 1 nM, and 1 μM), S,S-enantiomer of atorvastatin, or osteoprotegerin (OPG) and further cultured for 5 more days and stained for TRAP activity (see FIG. 1).\nOsteoclastogenesis involves a series of events which include differentiation, proliferation, activation, and fusion to form multinucleated cells that are capable of resorbing bone. To examine the stage at which atorvastatin inhibits osteoclastogenesis, atorvastatin was added at various times to mouse bone marrow cells in the presence of M-CSF and RANKL.\nBriefly, after removing the femur aseptically, the adherent soft tissue was separated from the bone. Using a syringe and a needle, the marrow was flushed using alpha minimum essential medium (α-MEM). Osteoclasts were obtained by culturing bone marrow cells (0.15×10^6 cells/well) in α-MEM containing 10% fetal bovine serum (FBS), 100 IU penicillin, 100 μg/mL of streptomycin and 100 ng/mL of recombinant murine M-CSF for 3 days in 48-well plates. The osteoclasts thus obtained were further cultured with RANKL±atorvastatin, S,S-enantiomer of atorvastatin or osteoprotegerin (OPG), for 5 days. […] In some experiments, the compounds were added on Day 5 postisolation.\nAfter washing twice with distilled water that was prewarmed to 37° C., the cells were incubated in acetate buffer containing naphthol AS-B1 and Fast Garnet GBC solution for 45 minutes at 37° C. TRAP-positive cells are typically brown in color when viewed under the microscope. The total number of TRAP-positive cells with 3 or more nuclei in each well were counted. TRAP activity is a phenotypic marker of mature osteoclasts."}, "[4]": {"tested_on": "osteoblast-osteoclast cocultures", "conditions": "10 μM; cited from earlier work"}, "[5]": {"conditions": "normal and ovariectomized (OVX) rats; cited from earlier work"}},
  "note": "Counter-ions that a name gives are not always drawn.",
  "data": [
    {"molecule": "CC(C)c1c(C(=O)Nc2ccccc2)c(-c2ccccc2)c(-c2ccc(F)cc2)n1CC[C@@H](O)C[C@@H](O)CC(=O)O", "note": "[atorvastatin, [R-(R*,R*)]-2-(4-fluorophenyl)-β,δ-dihydroxy-5-(1-methylethyl)-3-phenyl-4-[(phenylamino)carbonyl]-1H-pyrrole-1-heptanoic acid calcium salt (2:1) trihydrate]", "values": [
      {"measurement": "number of TRAP-positive, multinucleated cells", "setting": "[1]; 0.01 nM to 1 μM", "result": "significantly reduced"},
      {"measurement": "inhibition at 0.01 µM", "setting": "[1]; Mus musculus, RAW264.7, 120 h, 0.01 micromolar, 5 days, RANKL 50 ng/mL, read-out: % inhibition of RANKL-induced multinucleated cell formation", "result": "~80", "unit": "%"},
      {"measurement": "IC50", "setting": "[1]; Mus musculus, RAW264.7, RAW cells, read-out: IC50, number of TRAP-positive, multinucleated cells", "result": 170, "unit": "nM"},
      {"measurement": "osteoclast numbers", "setting": "[2]; 5 mg/kg orally, ovariectomized rats", "result": "significantly decreased"},
      {"measurement": "osteoclast numbers", "setting": "[2]; 10 mg/kg orally, ovariectomized rats", "result": "significantly decreased"},
      {"measurement": "decrease of osteoclast formation compared with ethinyl estradiol", "setting": "[2]; both 5 and 10 mg/kg doses, ethinyl estradiol positive control", "result": "more effective"},
      {"measurement": "number of osteoclasts formed", "setting": "[2]; daily oral 2.5-10 mg/kg body weight, 5-week period, ovariectomized rats", "result": "significantly decreased"},
      {"measurement": "number of TRAP-positive, multinucleated cells", "setting": "[3]; 0.01 nM to 1 μM", "result": "significantly reduced"},
      {"measurement": "IC50", "setting": "[3]; Mus musculus, primary murine bone marrow cell cultures, read-out: IC50, number of TRAP-positive, multinucleated cells", "result": 0.43, "unit": "nM"},
      {"measurement": "number of TRAP-positive cells formed", "setting": "[3]", "result": "able to block"},
      {"measurement": "effect when added on Day 5 compared with Day 3 postisolation", "setting": "[3]; time course", "result": "much more pronounced"}
    ]},
    {"molecule": "CC[C@H](C)C(=O)O[C@H]1C[C@@H](C)C=C2C=C[C@H](C)[C@H](CC[C@@H]3C[C@@H](O)CC(=O)O3)[C@H]21", "note": "[lovastatin]", "values": [
      {"measurement": "tartrate-resistant acid phosphatase (TRAP) activity", "setting": "[4]", "result": "inhibits"},
      {"measurement": "increase in total bone area compared to BMP-2 or b-FGF", "setting": "[5]", "result": "greater dose-dependent increase"}
    ]},
    {"molecule": "(3S,5S)-7-[2-(4-fluorophenyl)-5-isopropyl-3-phenyl-4-phenylcarbamoyl-pyrrol-1-yl]-3,5-dihydroxy-heptanoic acid calcium salt (2:1) [S,S-enantiomer of atorvastatin]", "values": [
      {"measurement": "% inhibition of RANKL-induced multinucleated cell formation, compared with atorvastatin", "setting": "[1]; 10, 1, and 0.01 μM, 5 days, RANKL 50 ng/mL", "result": "significantly less % inhibition"},
      {"measurement": "number of TRAP-positive cells formed", "setting": "[3]", "result": "no differences were observed"}
    ]},
    {"molecule": "osteoprotegerin (protein, UniProt O00300 22-401, looked up, soluble decoy receptor for RANKL) Tumor necrosis factor …: ETFPPKYLHYDEETSHQLLCDKCPPGTYLKQHCTAKWKTVCAPCPDHYYTDSWHTSDECLYCSPVCKELQYVKQECNRTHNRVCECKEGRYLEIEFCLKHRSCPPGFGVVQAGTPERNTVCKRCPDGFFSNETSSKAPCRKHTNCSVFGLLLTQKGNATHDNICSGNSESTQKCGIDVTLCEEAFFRFAVPTKFTPNWLSVLVDNLPGTKVNAESVERIKRQHSSQEQTFQLLKLWKHQNKDQDIVKKIIQDIDLCENSVQRHIGHANLTFEQLRSLMESLPGKKVGAEDIEKTIKACKPSDQILKLLSLWRIKNGDQDTLKGLMHALKHSKTYHFPKTVTQSLKKTIRFLHSFTMYKLYQKLFLEMIGNQVQSVKISCL", "values": [
      {"measurement": "number of TRAP-positive multinucleated cells formed by RANKL", "setting": "[3]; 50 ng/mL added simultaneously with RANKL", "result": "completely inhibited"}
    ]}
  ]
}
